According to US10493045B2, “Method for treating alcohol dependence or alcohol abuse” (priority 2016, dated 2019):
pIC50: −log10 of the molar value. Where “and” joins values, the source holds several entries; their conditions need not be identical. Equal entries are not always repeated.

Key:
[1] = test system: opioid-dependent patients undergoing methadone maintenance treatment; settings: add-on memantine; cited from earlier work
[2] = Plasma memantine concentration in treated patients; format: in vivo, human; settings: patients given 5 mg/day of memantine
[3] = test system: morphine-induced conditioned-place-preference behavior; settings: rats; low-dose 0.02 mg/kg; cited from earlier work
[4] = test system: plasma TNF-α, CRP, TGF-β1, IL-8, IL-10, and BDNF; assay: Plasma cytokine and BDNF levels by ELISA during 12-week add-on memantine treatment; format: in vivo, human
Protocol: (§1) Eligible patients were given low-dose (less than 5 mg/day) add-on memantine (5 mg/day) after an initial screening, with open-label valproic acid (VPA) treatment (500 or 1000 mg/day or […] in plasma) which had begun when they joined the study. The severity of mood symptoms was assessed by using the Hamilton Depression Rating Scale (HDRS) and the Young Mania Rating Scale (YMRS). Only patients with moderate mood symptoms (HDRS≥18 or YMRS≥14) were recruited. The exact amount of alcohol used by each patient was assessed by using the Chinese version of the Modified SADS-L. Symptom severity and alcohol use were assessed at baseline, and treatment responses were measured on day 7 of weeks 1, 2, 4, 8, and 12. Concomitant benzodiazepine medications (lorazepam<8 mg and chlordiazepoxide<240 mg) were used for nighttime sedation and withdrawal symptoms during the study. Up to 20 mg/day of fluoxetine was permitted for associated depressive symptoms, and 1-3 mg of risperidone was used for hypomanic symptoms.
Ten milliliters of whole blood was withdrawn from the antecubital vein of each patient when clinical severity was assessed: at baseline, and on day 7 of weeks 1, 2, 4, 8, and 12. Plasma, which was isolated from the whole blood after it had been centrifuged at 3000 g for 15 min at 4° C., was immediately stored at −80° C. The enzyme-linked immunosorbent assay was used to quantify the cytokine levels by ELISA reader (SpectraMax® M2e, Molecular Devices, USA). Sample processing and data analysis were done according to the manufacturer's instructions. The immunological parameters—plasma TNF-α, CRP, TGF-β1, IL-8, IL-10, and BDNF—were analyzed.
(§2) The intent to-treat (ITT) analysis set included all patients who had taken at least one dose of the studied drug, and had undergone one baseline assessment and at least one post-baseline assessment. All outcome variables—HDRS, YMRS, cytokine levels, plasma BDNF levels, and metabolic parameters—in the ITT set were analyzed. Missing data were filled in by using the last observation carried forward (LOCF) method.
(§3) The overall within-group changes of each outcome over 12 weeks were analyzed by using generalized estimating equations (GEEs). The present invention ran 10 models and each outcome was deemed as a dependent variable. In each model, treatment duration, gender, and age were considered as independent variables. The covariance structure used was the autoregressive (AR [1]) model. The significance of change of each outcome over 12-week follow-up was represented by the variable “treatment duration.” Linear regression analysis was used to analyze correlations between changes in alcohol use and changes in cytokine and BDNF levels in 12 weeks. Changes in alcohol use were dependent variables, and changes in HDRS and YMRS scores, and in plasma cytokine and BDNF levels (controlled for gender, age, and baseline clinical severity) were independent variables. SPSS 22.0 for Windows was used for all statistical computations. Significance was set at p<0.05.

[5] = test system: post-dependent (PD) rats; settings: injection 25 mg/kg; cited from earlier work
[6] = test system: BD-II patients with comorbid alcohol dependence; assay: 12-week open-label low-dose add-on memantine treatment: clinical severity (HDRS, YMRS) and alcohol use; format: in vivo, human
From the text: BD-II patients with comorbid alcohol dependence were recruited from outpatient and inpatient settings in Taiwan. All patients were initially evaluated by an attending psychiatrist and then given a structural interview by a clinical psychologist to determine according to the Diagnostic and Statistical Manual of Mental Disorders, Fourth Edition, Text Revision (DSM-IV-TR), and the Chinese version of the Modified Schedule of Affective Disorder and Schizophrenia-Life Time (SADS-L) was used, which had good inter-rater reliability. Patients suffering from major mental illnesses other than BD-II and alcohol dependence and patients who had taken memantine within 1 week before the study began were excluded.
as §1, §2, §3

[7] = biological target: NMDA receptors; settings: read-out: 50% inhibition concentration [IC50], block of NMDA receptors; cited from earlier work
[8] = test system: alcohol use; settings: up to 40 mg/day of memantine; cited from earlier work

CC12CC3CC(C)(C1)CC(N)(C3)C2 [memantine]
Plasma tumor necrosis factor-α (TNF-α) levels [1]: significantly downregulates
Required methadone dose [1]: reduces
Transforming growth factor-β1 (TGF-β1) levels [1]: upregulates
Plasma memantine concentrations [2]: 10-50 ng/ml and 0.05-0.2 μM
Morphine-induced conditioned-place-preference behavior [3]: abolishes
IL-10, mean at endpoint ([4]; endpoint 12 weeks, n = 26, baseline mean 2.09): 1.92
TNF-α, mean at endpoint ([4]; endpoint 12 weeks, n = 26, baseline mean 2.64): 2.66
IL-8, mean at endpoint ([4]; endpoint 12 weeks, n = 26, baseline mean 17.64): 10.22
CRP, mean at endpoint ([4]; endpoint 12 weeks, n = 26, baseline mean 2960.48): 2382.29
BDNF, mean at endpoint ([4]; endpoint 12 weeks, n = 26, baseline mean 16196.64): 18910.46
TGF-β1, mean at endpoint ([4]; endpoint 12 weeks, n = 26, baseline mean 30884.32): 27653.85
Change in TGF-β1 over 12 weeks of treatment ([4]; within-group change, GEE, p 0.080): −3586.37
Change in IL-10 over 12 weeks of treatment ([4]; within-group change, GEE, p 0.605): −0.182
Change in TNF-α over 12 weeks of treatment ([4]; within-group change, GEE, p 0.89): 0.04
Alcohol drinking during acute withdrawal [5]: reduced
Relapses of alcohol dependence after protracted abstinence [5]: did not reduce
Patients who stopped drinking during the first week of memantine treatment ([6]; 15 patients of 45, first week): 33.3%
Patients who reduced their alcohol use to 0 unit after 12 weeks ([6]; 22/26 patients, after 12 weeks): 84.6%
HDRS, mean at endpoint ([6]; BD-II patients with comorbid alcohol dependence, add-on memantine less than 5 mg/day plus VPA, endpoint 12 weeks, n = 26, baseline mean 14.4 (n = 45)): 9.4
Reduction of alcohol use after 12 weeks of treatment, all of the patients ([6]; after 12 weeks): > 50%
YMRS, mean at endpoint ([6]; endpoint 12 weeks, n = 26, baseline mean 13.8 (n = 45)): 9.4
Alcohol use (unit), mean at endpoint ([6]; endpoint 12 weeks, n = 26, baseline mean 73.9 (n = 45)): 11.8 unit
pIC50 [7]: 5.52 to 5.70
Alcohol use as compared to placebo [8]: not significantly reduced
